# Test results from ChEMBL document CHEMBL5154862, “Structure-Based Discovery of MDM2/4 Dual Inhibitors that Exert Antitumor Activities against MDM4-Overexpressing Cancer Cells” (J Med Chem, 2022).
# pIC50, pKi: −log10 of the molar value. The source made the active and inactive calls. No cut-off for these calls is given here.
# How the values were obtained:
# [1] = test system: RKO; assay: Upregulation of PUMA gene expression in human RKO cells incubated for 24 hrs by qPCR analysis; format: functional, cell-based; conditions: dose 0.3125-2.5 µM, DDE = dose-dependent effect
# [2] = test system: RKO; assay: Induction of apoptosis in human RKO cells assessed as necrotic cells at 25 uM measured after 48 hrs by Annexin V-FITC/PI staining based flow cytometry analysis (reference value: 2.08 %); format: functional
# [3] = test system: HCT-116; assay: cells; conditions: Homo sapiens, HCT-116, 96 h
# [4] = test system: RKO; assay: Induction of apoptosis in human RKO cells assessed as necrotic cells at 12.5 uM measured after 48 hrs by Annexin V-FITC/PI staining based flow cytometry analysis (reference value: 2.08 %); format: functional
# [5] = test system: RKO; assay: Induction of apoptosis in human RKO cells assessed as early apoptotic cells at 12.5 uM measured after 48 hrs by Annexin V-FITC/PI staining based flow cytometry analysis (reference value: 3.56 %); format: functional
# [6] = biological target: Cyclin-dependent kinase inhibitor 1 (Homo sapiens) (UniProt P38936); assay: Activation of p21 in human HCT-116 cells incubated for 24 hrs by Western blot analysis; format: cell-based; conditions: filed as activator, dose 0.078125-2.5 µM, DDE = dose-dependent effect
# [7] = test system: U2OS; assay: Effect on MDM4 protein expression in human U2OS cells at 2.5 uM measured after 24 hrs by Western blot analysis; format: functional, cell-based
# [8] = test system: RKO; assay: Downregulation of MDM4 expression in human RKO cells at 0.3125 to 2.5 uM incubated for 24 hrs by Western blot analysis; format: functional, cell-based; conditions: dose 0.3125-2.5 µM
# [9] = test system: RKO; assay: Induction of PARP cleavage in human RKO cells at 0.3125 to 2.5 uM incubated for 24 hrs by Western blot analysis; format: functional, cell-based; conditions: dose 0.3125-2.5 µM
# [10] = test system: HCT-116; assay: Upregulation of p21 protein expression in human HCT-116 cells at 2.5 uM measured after 24 hrs by Western blot analysis; format: functional, cell-based
# [11] = test system: RKO; assay: Upregulation of MDM2 expression in human RKO cells incubated for 24 hrs by Western blot analysis; format: functional, cell-based; conditions: dose 0.3125-2.5 µM, DDE = dose-dependent effect
# [12] = test system: RKO; assay: Induction of apoptosis in human RKO cells assessed as viable cells at 6.25 uM measured after 48 hrs by Annexin V-FITC/PI staining based flow cytometry analysis (reference value: 93.54 %); format: functional; conditions: read-out: Activity
# [13] = test system: MCF7; assay: Upregulation of p21 protein expression in human MCF7 cells at 2.5 uM measured after 24 hrs by Western blot analysis; format: functional, cell-based
# [14] = test system: U2OS; assay: Upregulation of p53 protein expression in human U2OS cells at 2.5 uM measured after 24 hrs by Western blot analysis; format: functional, cell-based
# [15] = species on record: Homo sapiens; assay: Potency index, ratio of RG7388 Ki to test compound Ki for displacement of 5-FAM labeled PDI peptide from MDM4 C17S mutant (14 to 111 residues) (unknown origin) expressed in Escherichia coli BL21 (DE3) assessed as inhibition constant incubated for 1.5 hrs by fluorescence polarization competition assay
# [16] = test system: RKO; assay: Induction of apoptosis in human RKO cells assessed as late apoptotic cells at 6.25 uM measured after 48 hrs by Annexin V-FITC/PI staining based flow cytometry analysis (reference value: 0.82 %); format: functional
# [17] = test system: MCF7; assay: Upregulation of MDM2 protein expression in human MCF7 cells at 2.5 uM measured after 24 hrs by Western blot analysis; format: functional, cell-based
# [18] = test system: RKO; assay: Antitumor activity against human RKO cells xenografted in BALB/c mouse assessed as tumor growth inhibition at 50 mg/kg, po qd administered via gavage for 21 consecutive days and measured on day 21 relative to control; format: functional; conditions: 504 h, time 21 day, read-out: TGI
# [19] = test system: NCI-H460; assay: Downregulation of MDM4 protein expression in human NCI-H460 cells at 2.5 uM measured after 24 hrs by Western blot analysis; format: functional, cell-based
# [20] = test system: NCI-H460; assay: cells; conditions: Homo sapiens, NCI-H460, 96 h
# [21] = biological target: Cellular tumor antigen p53 (Homo sapiens) (UniProt P04637); assay: Activation of p53 pathway in human HCT-116 cells incubated for 24 hrs by Western blot analysis; format: cell-based; conditions: filed as activator, dose 0.078125-2.5 µM, DDE = dose-dependent effect
# [22] = test system: U2OS; assay: Upregulation of p21 protein expression in human U2OS cells at 2.5 uM measured after 24 hrs by Western blot analysis; format: functional, cell-based
# [23] = AUC in ICR mouse at 15 mg/kg, po measured upto 24 hrs by LC-MS/MS analysis; format: ADME, organism-based; parameters: time < 24 hrs, dose 15 mg/kg, route po; conditions: in vivo
# [24] = Cmax in ICR mouse at 15 mg/kg, po measured upto 24 hrs by LC-MS/MS analysis; format: ADME, organism-based; parameters: time < 24 hrs, dose 15 mg/kg, route po; conditions: in vivo
# [25] = biological target: E3 ubiquitin-protein ligase Mdm2 (Homo sapiens, UniProt Q00987); assay: Displacement of 5-FAM labeled PDI peptide from MDM2 (1 to 118 residues) (unknown origin) expressed in Escherichia coli BL21 (DE3) assessed as inhibition constant incubated for 1.5 hrs by fluorescence polarization competition assay
# [26] = test system: RKO; assay: Upregulation of p21 gene expression in human RKO cells at 0.31 uM incubated for 24 hrs by qPCR analysis; format: functional, cell-based
# [27] = test system: RKO; assay: cells; conditions: Homo sapiens, 96 h
# [28] = test system: NCI-H460; assay: Upregulation of p21 protein expression in human NCI-H460 cells at 2.5 uM measured after 24 hrs by Western blot analysis; format: functional, cell-based
# [29] = test system: RKO; assay: Upregulation of p21 gene expression in human RKO cells incubated for 24 hrs by qPCR analysis; format: functional, cell-based; conditions: dose 0.3125-2.5 µM, DDE = dose-dependent effect
# [30] = test system: RKO; assay: Induction of apoptosis in human RKO cells assessed as late apoptotic cells at 25 uM measured after 48 hrs by Annexin V-FITC/PI staining based flow cytometry analysis (reference value: 0.82 %); format: functional
# [31] = test system: RKO; assay: Induction of apoptosis in human RKO cells assessed as early apoptotic cells at 25 uM measured after 48 hrs by Annexin V-FITC/PI staining based flow cytometry analysis (reference value: 3.56 %); format: functional
# [32] = test system: RKO; assay: Upregulation of MDM2 gene expression in human RKO cells incubated for 24 hrs by qPCR analysis; format: functional, cell-based; conditions: dose 0.3125-2.5 µM, DDE = dose-dependent effect
# [33] = test system: U2OS; assay: Upregulation of MDM2 protein expression in human U2OS cells at 2.5 uM measured after 24 hrs by Western blot analysis; format: functional, cell-based
# [34] = test system: U2OS; assay: cells; conditions: Homo sapiens, 96 h
# [35] = test system: RKO; assay: Induction of apoptosis in human RKO cells assessed as viable cells at 25 uM measured after 48 hrs by Annexin V-FITC/PI staining based flow cytometry analysis (reference value: 93.54 %); format: functional; conditions: read-out: Activity
# [36] = Displacement of 5-FAM labeled PDI peptide from MDM4 C17S mutant (14 to 111 residues) (unknown origin) expressed in Escherichia coli BL21 (DE3) assessed as inhibition constant incubated for 1.5 hrs by fluorescence polarization competition assay; parameters: species or system Homo sapiens
# [37] = test system: HeLa; assay: cells; conditions: Homo sapiens, 96 h
# [38] = test system: HCT-116; assay: Upregulation of p53 protein expression in human HCT-116 cells at 2.5 uM measured after 24 hrs by Western blot analysis; format: functional, cell-based
# [39] = test system: NCI-H460; assay: Upregulation of MDM2 protein expression in human NCI-H460 cells at 2.5 uM measured after 24 hrs by Western blot analysis; format: functional, cell-based
# [40] = Oral bioavailability in ICR mouse at 15 mg/kg measured upto 24 hrs by LC-MS/MS analysis; format: ADME, organism-based; conditions: in vivo
# Sequence of Cellular tumor antigen p53 (Homo sapiens) (P04637 whole entry, looked up): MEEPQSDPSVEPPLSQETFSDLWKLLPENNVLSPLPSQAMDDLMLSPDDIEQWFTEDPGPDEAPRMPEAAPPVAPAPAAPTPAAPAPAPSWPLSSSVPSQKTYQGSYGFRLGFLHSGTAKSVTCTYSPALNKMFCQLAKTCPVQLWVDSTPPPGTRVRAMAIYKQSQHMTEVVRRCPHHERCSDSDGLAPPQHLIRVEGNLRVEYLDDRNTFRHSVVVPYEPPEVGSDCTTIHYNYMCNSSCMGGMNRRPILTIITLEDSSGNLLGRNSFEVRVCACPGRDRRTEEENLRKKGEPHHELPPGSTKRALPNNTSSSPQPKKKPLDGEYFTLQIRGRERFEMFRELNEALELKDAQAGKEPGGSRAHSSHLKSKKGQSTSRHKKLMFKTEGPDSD
# Sequence of Cyclin-dependent kinase inhibitor 1 (Homo sapiens) (P38936 whole entry): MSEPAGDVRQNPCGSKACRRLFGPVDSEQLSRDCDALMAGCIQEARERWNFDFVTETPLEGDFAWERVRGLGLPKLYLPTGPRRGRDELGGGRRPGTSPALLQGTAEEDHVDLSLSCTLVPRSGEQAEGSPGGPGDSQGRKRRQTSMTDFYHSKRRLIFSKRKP
# Sequence of E3 ubiquitin-protein ligase Mdm2 (Q00987 whole entry, the tested form may be a part): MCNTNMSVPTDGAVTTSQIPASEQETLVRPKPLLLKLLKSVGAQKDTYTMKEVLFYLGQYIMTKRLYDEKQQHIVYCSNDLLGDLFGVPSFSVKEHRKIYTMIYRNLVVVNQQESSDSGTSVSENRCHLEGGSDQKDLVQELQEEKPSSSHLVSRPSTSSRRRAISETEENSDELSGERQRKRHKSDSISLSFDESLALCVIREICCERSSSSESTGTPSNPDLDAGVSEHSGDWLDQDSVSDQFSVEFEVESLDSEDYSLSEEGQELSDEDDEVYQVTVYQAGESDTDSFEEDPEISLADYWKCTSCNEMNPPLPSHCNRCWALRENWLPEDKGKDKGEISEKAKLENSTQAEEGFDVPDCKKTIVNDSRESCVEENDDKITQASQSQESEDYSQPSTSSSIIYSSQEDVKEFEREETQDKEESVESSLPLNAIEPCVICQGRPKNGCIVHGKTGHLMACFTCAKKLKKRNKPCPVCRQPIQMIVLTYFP
structure (smiles),measurement,setting,value
COc1cc(C(=O)O)ccc1NC(=O)[C@@H]1N[C@@H](CC(C)(C)C)[C@](CNCc2ccncc2)(c2ccc(Cl)cc2F)[C@H]1c1cccc(Cl)c1F,Activity,[1],Dde
same,Activity,[2],1.31%
same,pIC50,[3],7.29
same,Activity,[4],1.6%
same,Activity,[5],9.54%
same,Activity,[6],Dde
same,Activity,[7],Active
same,Activity,[8],Active
same,Activity,[9],Active
same,Activity,[10],Active
same,Activity,[11],Dde
same,viability at 6.25 µM,[12],74.5%
same,Activity,[13],Active
same,Activity,[14],Active
same,Ratio Ki,[15],6
same,Activity,[16],3.15%
same,Activity,[17],Active
same,inhibition in vivo at 50 mg/kg,[18],5%
same,Activity,[19],Active
same,pIC50,[20],6.34
same,Activity,[21],Dde
same,Activity,[22],Active
same,AUC at 24 h,[23],1990 ng·h/mL
same,Cmax,[24],1080 ng/mL
same,pKi,[25],8.96
same,Activity,[26],Active
same,pIC50,[27],6.70
same,Activity,[28],Active
same,Activity,[29],Dde
same,Activity,[30],57.01%
same,Activity,[31],34.16%
same,Activity,[32],Dde
same,Activity,[33],Active
same,pIC50,[34],6.43
same,viability at 25 µM,[35],7.52%
same,pKi,[36],6.19
same,pIC50,[37],5.13
same,Activity,[38],Active
same,Activity,[39],Active
same,bioavailability,[40],13.5%
